US20240327388A1, “QUINOLINAMINE COMPOUND, PREPARATION METHOD THEREFOR AND APPLICATION THEREOF IN PHARMACEUTICALS” (JIANGSU HENGRUI PHARMACEUTICALS CO., LTD., priority 2021, published 2024)
Read-outs that look alike come from different tables or passages of the source.

Assays:
[1] = Pharmacokinetic study in rats (intragastric administration and intravenous injection, LC/MS/MS); assay type: in vivo, SD rats; details: rat; for Vd/F / AUC / CL/F / half-life / Cmax / MRT / Vd / clearance: both sexes, SD, plasma; for Vd/F: read-out: Apparent volume of distribution Vz/F; for AUC: read-out: Area under curve AUC; for CL/F: read-out: Clearance CL/F; for half-life: read-out: Half-life t½ (converted); for Cmax: read-out: Plasma concentration Cmax; for MRT: read-out: Residence time MRT; for Vd: read-out: Apparent volume of distribution Vz; for clearance: read-out: Clearance CL
Procedure: With rats as test animals, the plasma concentration of the compound of Example 2 and a comparative compound A (see compound (1) of Example 3 in WO2016135052A1) were determined by LC/MS/MS at different time points after intragastric administration and intravenous injection to the rats. The pharmacokinetic behavior in rats of the compound disclosed herein was studied and its pharmacokinetic profile was evaluated.
16 healthy adult SD rats (half male and half female, purchased from Vital River Laboratory Animal Technology Co., Ltd.) were evenly divided into 4 groups.
A certain amount of the compound was weighed out, and 5% of DMSO, 5% of Tween 80, and 90% of normal saline were added to give a colorless and clear solution.
Intragastric administration group: SD rats were fasted overnight, and then the compound was administered intragastrically to the rats at a dose of 2 mg/kg and a volume of 10.0 mL/kg.
Intravenous administration group: SD rats were fasted overnight, and then the compound was administered to the rats by intravenous injection at a dose of 1 mg/kg and a volume of 5.0 mL/kg.
Intragastric administration group: The compound of Example 2 and the comparative compound A were administered intragastrically to the rats, and 0.1 mL of blood was collected from the orbit before administration and 0.25 h, 0.5 h, 1.0 h, 2.0 h, 4.0 h, 6.0 h, 8.0 h, 11.0 h and 24.0 h after administration. The blood was placed in an EDTA-K2 anticoagulation tube and centrifuged at 10000 rpm for 1 min at 4° C. The plasma was separated within 1 h and stored at −20° C. before analysis. The process from blood collection to centrifugation was performed in an ice bath. Two hours after administration, feeding was resumed.
Intravenous administration group: The rats were injected intravenously with the compound of Example 2 and the comparative compound A, and the blood was collected before administration and 5 min, 15 min, 0.5 h, 1.0 h, 2.0 h, 4.0 h, 8.0 h, 11.0 h and 24.0 h after administration and treated in the same way as the blood of the intragastric administration group.
Determination of plasma concentrations in rats after intragastric administration and intravenous injection of the test compounds at different concentrations: 20 μL of rat plasma at each time point after administration was mixed with 50 μL of an internal standard solution (camptothecin, 100 ng/mL) and 200 μL of acetonitrile, and the mixture was vortexed for 5 min and centrifuged for 10 min at 3700-4000 rpm. 1.0-2.0 μL of supernatant of the plasma sample was taken for LC/MS/MS analysis.

[2] = tested on: dextran sulfate sodium salt (DSS)-induced UC mice; test: Prophylactic and therapeutic effects on DSS-induced ulcerative colitis (UC) in mice; assay type: in vivo, female C57BL/6 mice; details: for efficacy on DSS-induced UC (conclusion in words): 50 mg/kg, body weight and colon length; for body weight decreasing rate / colon length, % of that of the normal control group: DSS-induced UC mice
Procedure: In the experiment, female C57BL/6 mice from Vital River were selected to establish an ulcerative colitis (UC) model induced by dextran sulfate sodium salt (DSS), and the prophylactic and therapeutic effects of a positive compound ABX-464 (see compound 90 in WO2015001518A1) and compound 1 disclosed herein on the DSS-induced ulcerative colitis were evaluated.
Female C57BL/6 mice for experiments, purchased from Vital River Laboratory Animal Technology Co., Ltd. (production license number: SCXK (Zhejiang) 2019-0001, animal certification number: 20210401Abzz0619000795), weighing 20-22 g at the time of purchase, were bred at 5 mice/cage in an independent SPF space (in 12/12-hour light/dark cycle, at a constant temperature of 23±1° C. and a humidity of 50%-60%) and given ad libitum access to food and water. After purchase, the animals were acclimatized for at least 1 week, and then the experiment began.
The mice were randomly divided by body weight into the following 5 groups: normal control group (Naïve group), model group (DSS group), ABX-464 (50 mg/kg, p.o., qd) group, ABX-464 (50 mg/kg, p.o., bid) group, and compound 1 disclosed herein (50 mg/kg, p.o., bid) group. After acclimatization, the mice were subjected to 2.5% DSS feeding from day 0. After 7 days of DSS feeding, the mice were fed normal water until day 10. The corresponding solvents and drugs were administered intragastrically for 10 consecutive days from day 0 to day 10, and the mice were observed daily for changes in body weight from day 0 to day 10. On day 10, the mice were weighed, and the colon length was measured.
The experimental data are expressed as mean±standard error (SEM). Statistical comparison was performed using Excel software t-test. The data of the model group and the data of the normal control group were analyzed and compared. #P<0.05 indicates a significant difference between the model group and the normal control group, ##P<0.01 indicates a highly significant difference between the model group and the normal control group, and ###P<0.001 indicates a very highly significant difference between the model group and the normal control group. *P<0.05 indicates a significant difference between the administration group and the model group, **P<0.01 indicates a highly significant difference between the administration group and the model group, and ***P<0.001 indicates a very highly significant difference between the administration group and the model group.

miR-124 = test: Up-regulation of miR-124 in CD3/CD28 antibody-activated T cells (SYBR green quantitative PCR); assay type: cell-based; details: T-cell, 72 h; activated human T cells, 1 μM compound, 3 days, relative to DMSO, U6 internal reference
Procedure: The effect of the compound on miR-124 expression levels was detected in CD3/CD28 antibody-activated T cells. After the activated T cells were treated with the compound, the total cellular RNA was extracted, the cDNA obtained from reverse transcription was used as a template, and quantification was performed by an SYBR green fluorescence quantitative PCR method using a specific miR-124 primer.
Isolation of T cells: Purchased human peripheral blood mononuclear cells (PBMCs) were counted, centrifuged, and washed once with a separation buffer (PBS, pH 7.4, containing 0.5% BSA and 2 mM EDTA), and the supernatant was discarded. The components were added in an amount of 40 μL of a buffer and 10 μL of pan T Cell Biotin-Antibody Cocktail per 1×10^7 cells, and the pellet was resuspended. The resulting suspension was mixed and incubated in a refrigerator at 4° C. for 5 min. After the incubation was completed, the components were added in an amount of 30 μL of a buffer and 20 μL of Pan T Cell MicroBeads Cocktail per 1×10^7 cells, and the resulting suspension was mixed and incubated in a refrigerator at 4° C. for 10 min. The separation column (LS column) was rinsed with 3 mL of a cell separation buffer in advance, loaded with the above cell suspension, and then repeatedly washed 3 times with 1 mL of the cell separation buffer. The effluent cell fluid was collected in a 15 mL centrifuge tube, thus giving the enriched T cells. The cells were counted and added at a density of 1×10^6 cells/mL to an RPMI1640 medium (complete medium) containing 10% FBS and 40) U/mL IL-2, and the resulting mixture was kept on ice for later use.
Activation of T cells: The corresponding Dynabead Human T-Activator CD3/CD28 for T Cell Expansion and Activation were added to a 1.5 mL centrifuge tube in an amount of 25 μL of the activated magnetic beads per 1×10^6 cells, which should be shaken on a shaker for about 30 s before aspiration. In the centrifuge tube, at a volume ratio of greater than 1:1, the activated magnetic beads were washed 3 times with a medium, and all the washing liquid was removed after the last washing. A complete medium with a volume equal to the starting volume was added to resuspend the activated magnetic beads. The washed activated magnetic beads were added to the cell resuspension, and the resulting mixture was well mixed. The cells were added to a six-well plate at 3 mL/well and incubated in a cell incubator at 37° C. with 5% CO2 for 2 days.
Compound treatment: A 20 mM compound stock solution was diluted to 200 μM with DMSO, and then diluted 4-fold to 50 μM (50)×) with a complete medium. The resulting mixture was well mixed for later use. 4-fold diluted DMSO (25% DMSO) was added to negative control wells. T cells were activated for two days and pipetted uniformly. The 1.5 mL centrifuge tube was mounted on a magnetic rack, and the activated magnetic beads were removed. The cell suspension was collected, and the cells were counted and then centrifuged at 300×g for 10 min to discard the supernatant. The cells were then resuspended to 1.02×10^6 cells/mL, and 980 μL of the cell suspension and 20 μL of the 50× compound were added to each 24-well plate, with the final concentration of the compound being 1 μM. The cells were placed in a cell incubator at 37° C. with 5% CO2 for another 3 days.
RNA extraction: T cells were collected by centrifugation at 1500 rpm for 3 min, washed once with PBS, and centrifuged again to discard the supernatant. The total cellular RNA was extracted using a microRNA extraction kit according to the package insert. 700 μL of a Trizol cell lysis buffer was added to the cell pellet, and the resulting mixture was pipetted uniformly and left at room temperature for 5 min. 140 μL of chloroform was added, and the resulting mixture was well mixed with shaking and left to stand at room temperature for 3 min. The chloroform-cell lysis buffer mixture was centrifuged at 12000×g and 4° C. for 15 min. […]

[3] = po, intragastric administration, 2 mg/kg

Row | Compound | Vd/F [1, 3] [L/kg] | AUC [1, 3] [ng·h/mL] | CL/F [1, 3] [mL/min/kg] | half-life [1, 3] [h] | Cmax [1, 3] [ng/mL] | MRT [1, 3] [h] | Vd ([1]; intravenous injection, 1 mg/kg) [L/kg] | AUC ([1]; intravenous injection, 1 mg/kg) [ng·h/mL] | clearance ([1]; intravenous injection, 1 mg/kg) [mL/min/kg] | half-life ([1]; intravenous injection, 1 mg/kg) [h] | MRT ([1]; intravenous injection, 1 mg/kg) [h] | efficacy on DSS-induced UC (conclusion in words) [2] | body weight decreasing rate ([2]; day 10, 50 mg/kg p.o. bid) [%] | colon length, % of that of the normal control group ([2]; day 10, 50 mg/kg p.o. bid) [%] | body weight decreasing rate ([2]; day 10, 50 mg/kg p.o. qd) [%] | colon length, % of that of the normal control group ([2]; day 10, 50 mg/kg p.o. qd) [%] | fold induction at 1 µM (miR-124) | pharmacokinetic profile (conclusion in words) ([1]; compared to comparative compound A)
1 | O=C(O)[C@H]1O[C@@H](N(c2ccc(OC(F)(F)F)cc2)c2ccc3cccc(Cl)c3n2)[C@H](O)[C@@H](O)[C@@H]1O [A, reference compound] | 21.4 | 311 | 95.7 | 2.57 | 105 | 3.76 | 0.151 | 11900 | 1.45 | 1.24 | 1.17 |  |  |  |  |  |  | 
2 | FC(F)(F)Oc1ccc(Nc2ccc3cccc(Cl)c3n2)cc1 [ABX-464] |  |  |  |  |  |  |  |  |  |  |  | certain prophylactic and therapeutic effects on the DSS-induced UC | 10.3 | 89.3 | 14.1 | 85.5 |  | 
3 | FC1(F)Oc2ccc(Nc3ccc4cccc(Cl)c4n3)cc2O1 [Compound 1, 8-Chloro-N-(2,2-difluorobenzo[d][1,3]dioxol-5-yl)quinolin-2-amine] |  |  |  |  |  |  |  |  |  |  |  | better efficacy in terms of body weight and colon length than the positive drug ABX-464 | 0.4 | 91.9 |  |  | 3.9 | 
4 | O=C(O)[C@H]1O[C@@H](N(c2ccc3c(c2)OC(F)(F)O3)c2ccc3cccc(Cl)c3n2)[C@H](O)[C@@H](O)[C@@H]1O [Compound 2, (2S,3S,4S,5R,6R)-6-((8-Chloroquinolin-2-yl)(2,2-difluorobenzo[d][1,3]dioxol-5-yl)amino)-3,4,5-trihydroxytetrahydro-2H-pyran-2-carboxylic acid] | 6.18 | 1220 | 28.7 | 2.47 | 242 | 4.32 | 0.178 | 23000 | 0.781 | 2.85 | 2.1 |  |  |  |  |  | 1.2 | good absorption profile and significant pharmacokinetic superiority as compared to the comparative compound A
